# Measurements taken from patent publication US20250154144A1 (CHILDREN'S HOSPITAL MEDICAL CENTER, priority 2021, published 2025).
# Tested on: THP1 cells
# Experiment: Combination drug screening, Cell Titer Glo, 10 × 10 matrix, THP1 cells
# Type: cell-based
# [1] = THP1 cells, 10 × 10, combination with (+)-BAY-1251152
# [2] = THP1 cells, 10 × 10, combination with AMG-232
# [3] = THP1 cells, 10 × 10, combination with AZD-5363
# [4] = THP1 cells, 10 × 10, combination with Eprenetapopt/APR-246
# [5] = THP1 cells, 10 × 10, combination with Ivosidenib
# [6] = THP1 cells, 10 × 10, combination with Lenalidomide
# [7] = THP1 cells, 10 × 10, combination with Palbociclib
# [8] = THP1 cells, 10 × 10, combination with Prednisolone
# [9] = THP1 cells, 10 × 10, combination with SNDX-5613
# [10] = THP1 cells, 10 × 10, combination with TNO-155
# [11] = THP1 cells, 10 × 10, combination with Trametinib
# [12] = THP1 cells, 10 × 10, combination with Ulixertinib
# [13] = THP1 cells, 10 × 10, combination with Venetoclax (ABT-199)
# [14] = THP1 cells, combination with Venetoclax (ABT-199)
# [15] = THP1 cells, combination with AMG-232
# [16] = starting conc. 200 nM, with (+)-BAY-1251152 starting conc. 1000 nM
# [17] = starting conc. 200 nM, with Azacitidine (5-Azacytidine) starting conc. 20000 nM
# [18] = starting conc. 200 nM, with Palbociclib starting conc. 10000 nM
# [19] = starting conc. 200 nM, with Prednisolone starting conc. 10000 nM
# [20] = starting conc. 200 nM, with TNO-155 starting conc. 10000 nM
# [21] = starting conc. 200 nM, with Venetoclax (ABT-199) starting conc. 2000 nM
# [22] = starting conc. 200 nM, with Venetoclax (ABT-199) starting conc. 20000 nM
# [23] = starting conc. 20000 nM, with (+)-BAY-1251152 starting conc. 1000 nM
# [24] = starting conc. 20000 nM, with Azacitidine (5-Azacytidine) starting conc. 20000 nM
# [25] = starting conc. 20000 nM, with Palbociclib starting conc. 10000 nM
# [26] = starting conc. 20000 nM, with Prednisolone starting conc. 10000 nM
# [27] = starting conc. 20000 nM, with TNO-155 starting conc. 10000 nM
# [28] = starting conc. 20000 nM, with Venetoclax (ABT-199) starting conc. 2000 nM
# [29] = starting conc. 20000 nM, with Venetoclax (ABT-199) starting conc. 20000 nM
# [30] = with (+)-BAY-1251152, single compound range 0-10,000 nM or 0-20,000 nM
# [31] = with AMG-232, single compound range 0-10,000 nM or 0-20,000 nM
# [32] = with AZD-5363, single compound range 0-10,000 nM or 0-20,000 nM
# [33] = with Eprenetapopt/APR-246, single compound range 0-10,000 nM or 0-20,000 nM
# [34] = with Ivosidenib, single compound range 0-10,000 nM or 0-20,000 nM
# [35] = with Lenalidomide, single compound range 0-10,000 nM or 0-20,000 nM
# [36] = with Palbociclib, single compound range 0-10,000 nM or 0-20,000 nM
# [37] = with Prednisolone, single compound range 0-10,000 nM or 0-20,000 nM
# [38] = with SNDX-5613, single compound range 0-10,000 nM or 0-20,000 nM
# [39] = with TNO-155, single compound range 0-10,000 nM or 0-20,000 nM
# [40] = with Trametinib, single compound range 0-10,000 nM or 0-20,000 nM
# [41] = with Ulixertinib, single compound range 0-10,000 nM or 0-20,000 nM
# [42] = with Venetoclax (ABT-199), single compound range 0-10,000 nM or 0-20,000 nM
# [43] = starting conc. 100 nM, with (+)-BAY-1251152 starting conc. 1000 nM
# [44] = starting conc. 100 nM, with Azacitidine (5-Azacytidine) starting conc. 20000 nM
# [45] = starting conc. 100 nM, with Palbociclib starting conc. 10000 nM
# [46] = starting conc. 100 nM, with Prednisolone starting conc. 10000 nM
# [47] = starting conc. 100 nM, with Venetoclax (ABT-199) starting conc. 2000 nM
# [48] = starting conc. 100 nM, with Venetoclax (ABT-199) starting conc. 20000 nM
smiles,measurement,setting,value
"CC(O)(c1cn2c(-c3ccnc(N[C@H]4CNCC[C@@H]4F)n3)cnc2cn1)C(F)(F)F (single isomer, unassigned) [Compound 72]",Excess HSA Score,[1],−155.7
same,Excess HSA Score,[2],364
same,Excess HSA Score,[3],−371.3
same,Excess HSA Score,[4],594.2926
same,Excess HSA Score,[5],175.5
same,Excess HSA Score,[6],175.9
same,Excess HSA Score,[7],−319
same,Excess HSA Score,[8],201.6
same,Excess HSA Score,[9],342.4
same,Excess HSA Score,[10],908.1
same,Excess HSA Score,[11],354.3
same,Excess HSA Score,[12],1146
same,Excess HSA Score,[13],−1130
same,Comments,"THP1 cells, combination with Ivosidenib",Antagonistic
same,Comments,[14],Synergistic
"F[C@H]1CCNC[C@@H]1Nc1cncc(-c2cnc3cc(OC4CC4)ccn23)n1 [Compound 12, 6-(7-cyclopropoxyimidazo[1,2-a]pyridin-3-yl)-N-((3S,4S)-4-fluoropiperidin-3-yl)pyrazin-2-amine]",Excess HSA Score,[1],−730.8
same,Excess HSA Score,[2],−0.2304
same,Excess HSA Score,[3],−798.3
same,Excess HSA Score,[4],477.7
same,Excess HSA Score,[5],−53.98
same,Excess HSA Score,[6],−72.51
same,Excess HSA Score,[7],575.5
same,Excess HSA Score,[8],−176.7
same,Excess HSA Score,[9],75.74
same,Excess HSA Score,[10],−498.7
same,Excess HSA Score,[11],300.014
same,Excess HSA Score,[12],−95.31
same,Excess HSA Score,[13],−1564
same,Comments,[15],Additive
same,Comments,"THP1 cells, combination with SNDX-5613",Antagonistic
same,Comments,[14],Synergistic
"COc1cc2ncc(-c3cncc(N[C@H]4CNCC[C@@H]4F)n3)n2nc1C1CC1 [Compound 24, 6-(6-cyclopropyl-7-methoxyimidazo[1,2-b]pyridazin-3-yl)-N-((3S,4S)-4-fluoropiperidin-3-yl)pyrazin-2-amine]",Excess HSA Score,[1],−308.4
same,Excess HSA Score,[2],144.3
same,Excess HSA Score,[3],−379.5012
same,Excess HSA Score,[4],−87.03
same,Excess HSA Score,[5],107
same,Excess HSA Score,[6],−94.52
same,Excess HSA Score,[7],−359.2
same,Excess HSA Score,[8],35
same,Excess HSA Score,[9],504
same,Excess HSA Score,[10],−66.32
same,Excess HSA Score,[11],−416.7
same,Excess HSA Score,[12],−298.8
same,Excess HSA Score,[13],−2203
same,Comments,"THP1 cells, combination with Prednisolone",Antagonistic
same,Comments,[14],Synergistic
same,Comments,[16],Synergistic at both
same,Excess HSA Score,[16],−571
same,Comments,[17],Synergism is more
same,Excess HSA Score,[17],−34.1
same,Comments,[18],Synergistic at both
same,Excess HSA Score,[18],−217.9
same,Comments,[19],Antagonistic at both
same,Excess HSA Score,[19],212.2
same,Comments,[20],Synergistic
same,Excess HSA Score,[20],−37.04
same,Comments,[21],Synergistic; Optimal
same,Excess HSA Score,[21],−888.9
same,Comments,[22],Synergistic; Optimal
same,Excess HSA Score,[22],−1905
same,Comments,[23],Synergistic at both
same,Excess HSA Score,[23],−641.3
same,Comments,[24],Synergism is more
same,Excess HSA Score,[24],−703.5
same,Comments,[25],Synergistic at both
same,Excess HSA Score,[25],−318.6
same,Comments,[26],Antagonistic at both
same,Excess HSA Score,[26],291
same,Comments,[27],Antagonistic over
same,Excess HSA Score,[27],308.6
same,Comments,[28],Synergistic; Optimal
same,Excess HSA Score,[28],−108.3
same,Comments,[29],Synergistic; Optimal
same,Excess HSA Score,[29],−1677
"COc1cc2ncc(-c3ccnc(N[C@@H]4CCCNC4)n3)n2cc1C(C)(C)O [Compound 44, (R)-2-(7-methoxy-3-(2-(piperidin-3-ylamino)pyrimidin-4-yl)imidazo[1,2-a]pyridin-6-yl)propan-2-ol]",Comments,[30],Synergistic
same,Excess HSA Score,[30],−516.5
same,Comments,[31],Antagonistic
same,Excess HSA Score,[31],733.5
same,Comments,[32],Antagonistic
same,Excess HSA Score,[32],35.78
same,Comments,[33],Antagonistic
same,Excess HSA Score,[33],460.1
same,Comments,[34],Synergistic
same,Excess HSA Score,[34],−47.26
same,Comments,[35],Antagonistic
same,Excess HSA Score,[35],877.5
same,Comments,[36],Synergistic
same,Excess HSA Score,[36],−764
same,Comments,[37],Antagonistic
same,Excess HSA Score,[37],68.4575
same,Comments,[38],Antagonistic
same,Excess HSA Score,[38],337.7
same,Comments,[39],Synergistic
same,Excess HSA Score,[39],−62.85
same,Comments,[40],Synergistic
same,Excess HSA Score,[40],−453.2
same,Comments,[41],Synergistic
same,Excess HSA Score,[41],−572.2
same,Comments,[42],Synergistic
same,Excess HSA Score,[42],−1159
"COc1cc2ncc(-c3ccnc(N[C@@H]4CCCNC4)n3)n2nc1C1CC1 [Compound 50, (R)-4-(6-cyclopropyl-7-methoxyimidazo[1,2-b]pyridazin-3-yl)-N-(piperidin-3-yl)pyrimidin-2-amine]",Excess HSA Score,[1],−396.5
same,Excess HSA Score,[2],252
same,Excess HSA Score,[3],−475
same,Excess HSA Score,[4],−218.2
same,Excess HSA Score,[5],−149.8
same,Excess HSA Score,[6],333.7
same,Excess HSA Score,[7],−273.2
same,Excess HSA Score,[8],−429.3
same,Excess HSA Score,[9],−9.013
same,Excess HSA Score,[10],306.2
same,Excess HSA Score,[11],−475.4
same,Excess HSA Score,[12],−358.5769
same,Excess HSA Score,[13],−2869
same,Comments,[15],Antagonistic
same,Comments,[14],Synergistic
same,Comments,[43],Synergistic at both
same,Excess HSA Score,[43],−408.4
same,Comments,[44],Synergistic at both
same,Excess HSA Score,[44],−164.8
same,Comments,[45],Antagonistic over
same,Excess HSA Score,[45],19.42
same,Comments,[46],Antagonistic at both
same,Excess HSA Score,[46],76.0598
same,Excess HSA Score,"starting conc. 100 nM, with TNO-155 starting conc. 10000 nM",0.06789
same,Comments,[47],Synergistic; Optimal
same,Excess HSA Score,[47],−911.4
same,Comments,[48],Synergistic; Optimal
same,Excess HSA Score,[48],−1400
same,Comments,[23],Synergistic at both
same,Excess HSA Score,[23],−293.4
same,Comments,[24],Synergistic at both
same,Excess HSA Score,[24],−347.5
same,Excess HSA Score,[25],−482.7
same,Comments,[26],Antagonistic at both
same,Excess HSA Score,[26],541.6925
same,Comments,[27],Antagonistic
same,Excess HSA Score,[27],230.5
same,Comments,[28],Synergistic; Optimal
same,Excess HSA Score,[28],−27.96
same,Comments,[29],Synergistic; Optimal
same,Excess HSA Score,[29],−1808
